Laboratory results published in patent US8846760B2, “Dihydronaphthalene and naphthalene derivatives as N-formyl peptide receptor like-1 (FPRL-1) receptor modulators” (Allergan, Inc., priority 2011, dated 2014).

Target: T1, FPRL-1 (Homo sapiens, UniProt P25090)
T1 construct: expressed in transfected cells
T1 sequence (P25090 1-351): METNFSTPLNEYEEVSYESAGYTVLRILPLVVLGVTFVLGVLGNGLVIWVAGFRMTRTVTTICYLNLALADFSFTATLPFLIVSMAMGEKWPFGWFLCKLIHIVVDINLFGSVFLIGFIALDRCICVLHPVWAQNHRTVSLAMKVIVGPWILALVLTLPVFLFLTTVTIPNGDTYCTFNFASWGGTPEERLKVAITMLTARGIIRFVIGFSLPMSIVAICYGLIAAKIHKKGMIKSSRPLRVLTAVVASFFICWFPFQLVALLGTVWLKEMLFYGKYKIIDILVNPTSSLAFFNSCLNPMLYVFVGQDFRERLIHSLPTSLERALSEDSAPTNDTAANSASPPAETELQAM
Test: Compound-induced calcium activity on FLIPR Tetra in CHO-Gα16 cells stably expressing FPRL1
Type: cell-based
Details: for Emax: efficacy, read-out: FPRL-1 Ga16-CHO (eff %); for EC50: tested 0.61 to 10,000 nM, read-out: FPRL-1 Ga16-CHO EC50
Procedure: CHO-Gα16 cells stably expressing FPRL1 were cultured in (F12, 10% FBS, 1% PSA, 400 μg/ml geneticin and 50 μg/ml hygromycin) and HEK-Gqi5 cells stable expressing FPR1 were cultured in (DMEM high glucose, 10% FBS, 1% PSA, 400 μg/ml geneticin and 50 μg/ml hygromycin). In general, the day before the experiment, 18,000 cells/well were plated in a 384-well clear bottom poly-d-lysine coated plate. The following day the screening compound-induced calcium activity was assayed on the FLIPR^Tetra. The drug plates were prepared in 384-well microplates using the EP3 and the MultiPROBE robotic liquid handling systems. Compounds were tested at concentrations ranging from 0.61 to 10,000 nM. Results are expressed as EC50 (nM) and efficacy values.

| Compound | Emax [%] | EC50 [nM] |
| --- | --- | --- |
| CC(C)(C)c1ccc2c(c1)C(C(=O)O)=C(C(=O)Nc1ccc(Br)cc1)CC2 [Compound 2, 2-{[(4-Bromophenyl)amino]carbonyl}-7-tert-butyl-3,4-dihydronaphthalene-1-carboxylic acid] | 86 | 1320 |
| O=C(O)C1=C(C(=O)Nc2ccc(Br)cc2)CCc2c1cccc2-c1ccccc1 [Compound 5, 2-{[(4-Bromophenyl)amino]carbonyl}-5-phenyl-3,4-dihydronaphthalene-1-carboxylic acid] | 100 | 566 |
| Cc1cc(C)c2c(c1)C(C(=O)O)=C(C(=O)Nc1ccc(Br)cc1)CC2 [Compound 7, 2-{[(4-Bromophenyl)amino]carbonyl}-5,7-dimethyl-3,4-dihydronaphthalene-1-carboxylic acid] | 95 | 3920 |
| Cc1ccc(C)c2c1CCC(C(=O)Nc1ccc(Br)cc1)=C2C(=O)O [Compound 8, 2-{[(4-Bromophenyl)amino]carbonyl}-5,8-dimethyl-3,4-dihydronaphthalene-1-carboxylic acid] | 93 | 198 |
| O=C(O)c1cc2ccccc2cc1C(=O)Nc1ccc(Br)cc1 [Compound 9, 3-{[(4-Bromophenyl)amino]carbonyl}-2-naphthoic acid] | 92 | 5930 |
| CC1(C)CCC(C)(C)c2cc(C(=O)Nc3ccc(Br)cc3)c(C(=O)O)cc21 [Compound 10, 3-{[(4-Bromophenyl)amino]carbonyl}-5,5,8,8-tetramethyl-5,6,7,8-tetrahydronaphthalene-2-carboxylic acid] | 58 | 1560 |
| O=C(Nc1ccc(Br)cc1)c1ccc2ccccc2c1C(=O)O [Compound 11, 2-{[(4-Bromophenyl)amino]carbonyl}-1-naphthoic acid] | 100 | 1300 |
| CCc1cc(C(=O)Nc2ccc(Br)cc2)c(C(=O)O)c2ccccc12 [Compound 12, 2-{[(4-Bromophenyl)amino]carbonyl}-4-ethyl-1-naphthoic acid] | 95 | 165 |

Other lines, results leading:

| Emax [%] | EC50 [nM] | Compound |
| --- | --- | --- |
| 80 | 756 | CC(C)c1cccc2c1CCC(C(=O)Nc1ccc(Br)cc1)=C2C(=O)O [Compound 1, 2-{[(4-Bromophenyl)amino]carbonyl}-5-isopropyl-3,4-dihydronaphthalene-1-carboxylic Acid] |
| 95 | 87 | CC1(C)CC(C(=O)Nc2ccc(Br)cc2)=C(C(=O)O)c2ccccc21 [Compound 3, 2-{[(4-Bromophenyl)amino]carbonyl}-4,4-dimethyl-3,4-dihydronaphthalene-1-carboxylic acid] |
| 81 | 777 | O=C(O)C1=C(C(=O)Nc2ccc(Br)cc2)CCc2ccc(Cl)cc21 [Compound 4, 2-{[(4-Bromophenyl)amino]carbonyl}-7-chloro-3,4-dihydronaphthalene-1-carboxylic acid] |
| 90 | 383 | O=C(O)C1=C(C(=O)Nc2ccc(Br)cc2)CCc2ccccc21 [Compound 6, 2-{[(4-Bromophenyl)amino]carbonyl}-3,4-dihydronaphthalene-1-carboxylic acid] |
